Legend:
Lyme disease = assay: Lyme Disease Case Study #2; assay type: in vivo, human; conditions: treatments before coACT A-B, person
Excerpt: They worked as a full-time project manager for a non-profit food bank, and lives in the United States. Their symptoms first appeared in August of 2010. When […] was first diagnosed they had skin rashes that were not helped with topical treatments, low-grade fevers, severe migraines, continuous muscle aches, sore throat, stomach pain, joint pains, gynecological issues, and constant fatigue. The initial indication was hives on stomach and back which grew to circular rashes on both thighs, all directly following an insect bite from a horse fly.
From these professionals they were diagnosed not only with Lyme disease, but the following diagnoses and/or misdiagnoses: fibromyalgia, depression, arthritis, pinched nerve, burning mouth syndrome, and mycotoxic poisoning. By May 2011 they were confirmed with Lyme disease and subsequently reconfirmed by another physician in August 2011. Their case of Lyme disease was clinically diagnosed based on lab findings, Western Blot, and symptomatology. […] Tindamax was likewise not tolerated. […] Other anti-fungals caused pain and further reduced their energy levels.
[…] […] They reported climbing the lighthouse stairs in St. Augustine, Fla. without suffering a decrease in energy afterwards, which was atypical for them at that time. […] Kathy has stated that coACT provided them with “a few really good weeks which is invaluable when you haven't functioned normally for some time. For chronic long-term patients, I suspect additional dosing (like every few months or so) is necessary. For newcomers or uncomplicated cases, it could be a bridge to health and healing.

JCV = conditions: literature case reports; cited from earlier work
chikungunya disease = conditions: cell culture and monkeys; cited from earlier work
chikungunya virus = conditions: 250 mg/day; cited from earlier work

Row | Compound | outcome of earlier treatments in patient history (Lyme disease) | further results
1 | Nc1nc2c(ncn2COCCO)c(=O)[nH]1 [Acyclovir] | caused their symptoms to worsen in that they could not lift their arms | –
2 | OC(c1cc(C(F)(F)F)nc2c(C(F)(F)F)cccc12)C1CCCCN1 (centres unmarked) [mefloquine] | – | clinical outcome in PML patients (JCV): seemed to eliminate the virus from the patient's body and prevented further neurological deterioration
3 | Ivermectin | helped them to pass parasites in their stool, but left their lifeless, dizzy, and with nystagmus | –
4 | CN1CCCN=C1/C=C/c1cccs1.O=C(O)c1cc2ccccc2c(Cc2c(O)c(C(=O)O)cc3ccccc23)c1O [Pyrantal Pamoate] | helped them to pass parasites in their stool, but left their lifeless, dizzy, and with nystagmus | –
5 | CCCSc1ccc2nc(NC(=O)OC)[nH]c2c1 [Albendazole] | seemed to help them with passing parasites | –
6 | CCN(CC)CCCC(C)Nc1ccnc2cc(Cl)ccc12 (centres unmarked) [chloroquine] | – | reduction of chikungunya disease (chikungunya disease): no effect
7 | Nc1ccn([C@@H]2O[C@H](CO)[C@@H](O)[C@@H]2O)c(=O)n1 [Cytarabine] | – | clinical outcome in PML patients (JCV): stabilized the neurological condition of a minority of these patients
8 | CCS(=O)(=O)CCn1c([N+](=O)[O-])cnc1C [Tindamax] | not tolerated | –
9 | CO/N=C(\C(=O)N[C@@H]1C(=O)N2C(C(=O)O)=C(CSc3nc(=O)c(=O)[nH]n3C)CS[C@H]12)c1csc(N)n1 [Rocephin] | helped restore their energy, but caused an allergic reaction | –
10 | C[C@@H]1[C@H](O)[C@@H](C)/C=C/C=C/CC/C=C/C=C/C=C/C=C/C(O[C@H]2O[C@H](C)[C@@H](O)[C@H](N)[C@@H]2O)CC2O[C@](O)(CC(O)C(O)CCC(O)CC(O)CC(O)CC(=O)O[C@H]1C)CC(O)C2C(=O)O (some centres unmarked) [Nystatin] | neither of which made any detectable difference | –
11 | CCN(CC)CCCC(C)Nc1ccnc2cc(Cl)ccc12 (centres unmarked) [chloroquine phosphate] | – | effect on arthritis-like symptoms not relieved by aspirin and NSAID (chikungunya virus): promising results
